Experimental data taken from patent publication US20100029673A1, “THERAPEUTIC AGENTS COMPRISING AN ANTI-ANGIOGENIC AGENT IN COMBINATION WITH AN SRC-INHIBITOR AND THEIR THERAPEUTIC USE” (AstraZeneca AB, priority 2003, published 2010).

Columns and labels:
[1] = test system: normotensive rats (Alderley Park strain, male animals); test: Measurement of blood pressure in conscious rats by radio-telemetry; format: in vivo, rat; conditions: single dose p.o. of a combination of 1.5 mg/kg of VTK-1 and 25 mg/kg of Src-1 vs control citrate buffer vehicle; FIGS. 1-3
Procedure: Blood pressure was measured using commercially-available radio-telemetry equipment (Data Sciences International, Saint Paul, Minn., USA) which provides a means for the remote measurement of the blood pressure (BP), heart rate and activity of a conscious, unrestrained laboratory animal such as a rat. Measurements obtained using this system have the advantage that the test animal is free from stresses induced by surgery and/or restraint.
The equipment comprises a pressure transducer (Code No. TA11PA-C40; hereinafter the ‘pressure transducer implant’) that is implanted into the abdomen of a laboratory rat. The transducer transmits a radio signal indicating the pressure in the aorta of the animal and the signal is detected by a receiver (RA1010) placed under the plastic cage which houses the animal. The signal is recorded and evaluated automatically by pre-written computer software (DataQuest 2.1 that may be installed on a suitable computer such as an IBM-compatible personal computer containing an Intel™ 486 processor). […]
The animals were housed in a facility using a 12 hour cycle of light and dark. […] Blood pressure data were recorded from each animal every 10 minutes throughout each Study.
Typically, on day 1, each of a group of 3 rats was dosed p.o. at approximately 9.00 am with control vehicle and blood pressure data were recorded during the ensuing 24 hour period. […]

dog coronary arteries = conditions: cited from earlier work
conscious rats = conditions: cited from earlier work
anaesthetized rats = conditions: 15 μg/kg bFGF; cited from earlier work

Compound: COc1cc2c(Oc3ccc4[nH]c(C)cc4c3F)ncnc2cc1OCCCN1CCCCC1 [VTK-1, 4-(4-fluoro-2-methylindol-5-yloxy)-6-methoxy-7-(3-piperidinopropoxy)quinazoline]
- contrasting blood pressure effects (diastolic blood pressure profile) [1]: substantially counter-balanced

Compound: VEGF
- effect on dog coronary arteries in vitro (dog coronary arteries): dilate dog coronary arteries
- return to normal blood pressure (conscious rats; VEGF 250 μg/kg, conscious rats): ≤ 20 min
- effect on blood pressure in the conscious rat (conscious rats; conscious rat): induce hypotension

Compound: CC(=O)N1CCN(CCOc2cc(OC(C)C)c3c(Nc4c(Cl)ccc5c4OCO5)ncnc3c2)CC1 [Src-1, 7-[2-(4-acetylpiperazin-1-yl)ethoxy]-4-(6-chloro-2,3-methylenedioxyanilino)-5-isopropoxyquinazoline]
- contrasting blood pressure effects (diastolic blood pressure profile) [1]: substantially counter-balanced

Compound: bFGF: basic fibroblast growth factor
- blood pressure returning to normal (anaesthetized rats): ≤ 30 min
